Reference: patent US8455688B2, “HDAC inhibitors” (Lixte Biotechnology, Inc., priority 2007, dated 2013)
Converted amounts (≈) assume the structure as drawn. Where two headings read alike, the source gives them in different places.

What was measured:
R. arrhizus = assay: Broth dilution antifungal susceptibility testing, R. arrhizus; format: cell-based, Rhizopus oryzae; details: Rhizopus arrhizus, 80% inhibition, read-out: minimum inhibitory concentration (MIC)
Method in brief: (§1)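 Clinical isolates tested by NCCLS broth dilution (M27-A2 for yeasts, M38-A for moulds) in RPMI-1640 with glutamine, no bicarbonate, at 35° C. Inoculum 0.5-2.5×10^3 for yeasts. Final drug concentrations 0.125-64 μg/ml from DMSO stocks; MIC read at first 24-hour interval with growth in drug-free control.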

S. apiospermum = assay: Broth dilution antifungal susceptibility testing, S. apiospermum; format: cell-based, Pseudallescheria boydii; details: Scedosporium apiospermum, 80% inhibition, read-out: minimum inhibitory concentration (MIC)
Method in brief: as §1

C. albicans = assay: Broth dilution antifungal susceptibility testing, C. albicans; format: cell-based, Candida albicans; details: Candida albicans, 50% reduction in turbidity, read-out: minimum inhibitory concentration (MIC)
Method in brief: as §1

C. neoformans = assay: Broth dilution antifungal susceptibility testing, C. neoformans; format: cell-based; details: Cryptococcus neoformans, 50% reduction in turbidity, read-out: minimum inhibitory concentration (MIC)
Method in brief: as §1

A. fumigatus = assay: Broth dilution antifungal susceptibility testing, A. fumigatus; format: cell-based, Aspergillus fumigatus; details: Aspergillus fumigatus, 80% inhibition, read-out: minimum inhibitory concentration (MIC)
Method in brief: as §1

T. rubrum = assay: Broth dilution antifungal susceptibility testing, T. rubrum; format: cell-based, Trichophyton rubrum; details: Trichophyton rubrum, 80% inhibition, read-out: minimum inhibitory concentration (MIC)
Method in brief: as §1

CP Control = assay: Broth dilution antifungal susceptibility testing, CP Control; format: cell-based; details: read-out: minimum inhibitory concentration (MIC)
Method in brief: as §1

GBM xenograft = GBM xenograft tumor volume in SCID mice; format: in vivo; details: tumor cells implanted subcutaneously, 0, 7, 14, 21 and 28 days
C. glabrata = assay: Broth dilution antifungal susceptibility testing, C. glabrata; format: cell-based, Candida glabrata; details: Nakaseomyces glabratus, 50% reduction in turbidity, read-out: minimum inhibitory concentration (MIC)
Method in brief: as §1

F. solani = assay: Broth dilution antifungal susceptibility testing, F. solani; format: cell-based; details: Fusarium solani, 80% inhibition, read-out: minimum inhibitory concentration (MIC)
Method in brief: as §1

U87 GBM xenografts = assay: Inhibition of U87 GBM xenografts; details: in vivo
cell line U-87 = assay: Activity against the cell line U-87; format: cell-based, human; details: potency on an equimolar basis

In the case of CN(C)c1ccc(NC(=O)CCCCCNC(=O)c2ccccc2S)cc1 [Compound 206, 2-Mercapto-N-[5-(4-dimethylamino-3-yl-carbamoyl)pentyl]benzamide], the MIC (R. arrhizus; 24 h, isolate 07-1870, 24 hours) was 32 µg/mL (≈ 83 µM), the MIC (R. arrhizus; 24 h, isolate 07-2044, 24 hours) was 32 µg/mL (≈ 83 µM) and the MIC (R. arrhizus; 24 h, isolate 07-2078, 24 hours) was > 64 µg/mL. For the same molecule, the MIC (R. arrhizus; 48 h, isolate 07-1870, 48 hours) was 64 µg/mL (≈ 166 µM), the MIC (R. arrhizus; 48 h, isolate 07-2044, 48 hours) was 64 µg/mL (≈ 166 µM) and the MIC (R. arrhizus; 48 h, isolate 07-2078, 48 hours) was > 64 µg/mL. The MIC (S. apiospermum; 24 h, isolate 07-1333, 24 hours) was 1 µg/mL (≈ 2.59 µM), the MIC (S. apiospermum; 24 h, isolate 07-1502, 24 hours) was 8 µg/mL (≈ 20.8 µM) and the MIC (S. apiospermum; 24 h, isolate 07-1601, 24 hours) was 2 µg/mL (≈ 5.19 µM). It also gave an MIC (S. apiospermum; 48 h, isolate 07-1333, 48 hours) of 2 µg/mL (≈ 5.19 µM), an MIC (S. apiospermum; 48 h, isolate 07-1502, 48 hours) of 16 µg/mL (≈ 41.5 µM) and an MIC (S. apiospermum; 48 h, isolate 07-1601, 48 hours) of 2 µg/mL (≈ 5.19 µM). For the same molecule, the MIC (C. albicans; 24 h, isolate 07-3006, 24 hours) was 64 µg/mL (≈ 166 µM), the MIC (C. albicans; 24 h, isolate 07-3011, 24 hours) was 64 µg/mL (≈ 166 µM) and the MIC (C. albicans; 24 h, isolate 07-3012, 24 hours) was > 64 µg/mL. The MIC (C. albicans; 48 h, isolate 07-3006, 48 hours) was > 64 µg/mL, the MIC (C. albicans; 48 h, isolate 07-3011, 48 hours) was > 64 µg/mL and the MIC (C. albicans; 48 h, isolate 07-3012, 48 hours) was > 64 µg/mL. The MIC (C. neoformans; 24 h, isolate 07-2665, 24 hours) was 16 µg/mL (≈ 41.5 µM), the MIC (C. neoformans; 24 h, isolate 07-2737, 24 hours) was 16 µg/mL (≈ 41.5 µM) and the MIC (C. neoformans; 24 h, isolate 07-2829, 24 hours) was 64 µg/mL (≈ 166 µM). It also gave an MIC (C. neoformans; 48 h, isolate 07-2665, 48 hours) of 32 µg/mL (≈ 83 µM), an MIC (C. neoformans; 48 h, isolate 07-2737, 48 hours) of 32 µg/mL (≈ 83 µM) and an MIC (C. neoformans; 48 h, isolate 07-2829, 48 hours) of 64 µg/mL (≈ 166 µM). For the same molecule, the MIC (A. fumigatus; 24 h, isolate 05-388, 24 hours) was 16 µg/mL (≈ 41.5 µM), the MIC (A. fumigatus; 24 h, isolate 06-4126, 24 hours) was 8 µg/mL (≈ 20.8 µM) and the MIC (A. fumigatus; 24 h, isolate 07-2039, 24 hours) was 8 µg/mL (≈ 20.8 µM). The MIC (A. fumigatus; 48 h, isolate 05-388, 48 hours) was > 64 µg/mL, the MIC (A. fumigatus; 48 h, isolate 06-4126, 48 hours) was 64 µg/mL (≈ 166 µM) and the MIC (A. fumigatus; 48 h, isolate 07-2039, 48 hours) was > 64 µg/mL. It also gave an MIC (T. rubrum; 24 h, isolate 07-1743, 24 hours) of 0.25 µg/mL (≈ 0.648 µM), an MIC (T. rubrum; 24 h, isolate 07-2055, 24 hours) of 0.25 µg/mL (≈ 0.648 µM) and an MIC (T. rubrum; 48 h, isolate 07-1743, 48 hours) of 0.25 µg/mL (≈ 0.648 µM). It also gave an MIC (T. rubrum; 48 h, isolate 07-2055, 48 hours) of 0.25 µg/mL (≈ 0.648 µM), an MIC (CP Control; 24 hours) of 8 µg/mL (≈ 20.8 µM) and an MIC (CP Control; 48 hours) of 64 µg/mL (≈ 166 µM). The “inhibition of GBM xenograft tumor volume” value (GBM xenograft) was “inhibited the growth of GBM xenograft tumor volume”, the MIC (C. glabrata; 24 h, isolate 07-2964, 24 hours) was 32 µg/mL (≈ 83 µM) and the MIC (C. glabrata; 24 h, isolate 07-2965, 24 hours) was 32 µg/mL (≈ 83 µM). For the same molecule, the MIC (C. glabrata; 24 h, isolate 07-3013, 24 hours) was 32 µg/mL (≈ 83 µM), the MIC (C. glabrata; 48 h, isolate 07-2964, 48 hours) was > 64 µg/mL and the MIC (C. glabrata; 48 h, isolate 07-2965, 48 hours) was > 64 µg/mL. The MIC (C. glabrata; 48 h, isolate 07-3013, 48 hours) was > 64 µg/mL, the MIC (F. solani; 24 h, isolate 07-1399, 24 hours) was > 64 µg/mL and the MIC (F. solani; 24 h, isolate 07-1755, 24 hours) was > 64 µg/mL. The MIC (F. solani; 24 h, isolate 07-1867, 24 hours) was 64 µg/mL (≈ 166 µM), the MIC (F. solani; 48 h, isolate 07-1399, 48 hours) was > 64 µg/mL and the MIC (F. solani; 48 h, isolate 07-1755, 48 hours) was > 64 µg/mL. The MIC (F. solani; 48 h, isolate 07-1867, 48 hours) was > 64 µg/mL, the “inhibition of U87 GBM xenografts compared to control” value (U87 GBM xenografts) was “significant inhibition” and the “activity against the cell line U-87” value (cell line U-87) was “most potent on an equimolar basis”.
